Experimental data: patent publication US5420343A, “Derivatives of aromatic cyclic alkylethers” (G. D. Searle & Co., priority 1994, dated 1995)

Tests used:
human COX-I = biological target: T1, human COX-I (Homo sapiens, UniProt P23219); test: Human Enzyme Assay, COX-I (recombinant enzyme, PGE2 ELISA); format: biochemical; settings: 10 μM arachidonic acid, 10-20 min pre-incubation
T1 construct: made in house; host or cells: SF9 insect cells, recombinant baculovirus (pVL1393); coding fragment from Caymen Chemical, Ann Arbor, Mich
Protocol: (§1) The compounds of the invention are evaluated with respect to COX-I and COX-II activity in vitro using an enzyme based assay according to the following assay procedure.
(§2) A 2.0 kb fragment containing the coding region for either human or murine COX-I (Caymen Chemical, Ann Arbor, Mich.), or human or murine COX-II (Caymen Chemical, Ann Arbor, Mich.), was cloned into a BamH1 site of the baculovirus transfer vector pVL1393 (Invitrogen, Palo Alto, Calif.) to generate a baculovirus transfer vector. Recombinant baculoviruses were isolated by transfecting 4 μg of baculovirus transfer vector DNA into SF9 cells (2×10e8) (Invitrogen, Palo Alto, Calif.) along with 200 ng of linearized bacium by the phosphate method. See M. D. Summers et al., "A Manual of Methods for Baculovirus Vectors and Insect Cell Culture Procedure," TEXAS AGRICULTURE EXPERIMENTAL STATION BULLETIN, No. 1555 (1987), which is incorporated herein by reference. Recombinant viruses were purified by three rounds of plaque purification, and high titer (10e7-10e8 pfu/ml) stocks of virus were prepared. […]
(§3) COX activity was assayed as PGE2 formed/μg protein/time using an ELISA (Caymen Chemical, Ann Arbor, Mich.) to detect the prostaglandin E2 released. […] The PGE2 formed was measured by standard ELISA technology (Cayman Chemical, Ann Arbor, Mich.). […]

human COX-II = biological target: T2, human COX-II (Homo sapiens, UniProt P35354); test: Human Enzyme Assay, COX-II (recombinant enzyme, PGE2 ELISA); format: biochemical; settings: 10 μM arachidonic acid, 10-20 min pre-incubation
T2 construct: made in house; host or cells: SF9 insect cells, recombinant baculovirus (pVL1393); coding fragment from Caymen Chemical, Ann Arbor, Mich
T2 sequence (P35354 18-604): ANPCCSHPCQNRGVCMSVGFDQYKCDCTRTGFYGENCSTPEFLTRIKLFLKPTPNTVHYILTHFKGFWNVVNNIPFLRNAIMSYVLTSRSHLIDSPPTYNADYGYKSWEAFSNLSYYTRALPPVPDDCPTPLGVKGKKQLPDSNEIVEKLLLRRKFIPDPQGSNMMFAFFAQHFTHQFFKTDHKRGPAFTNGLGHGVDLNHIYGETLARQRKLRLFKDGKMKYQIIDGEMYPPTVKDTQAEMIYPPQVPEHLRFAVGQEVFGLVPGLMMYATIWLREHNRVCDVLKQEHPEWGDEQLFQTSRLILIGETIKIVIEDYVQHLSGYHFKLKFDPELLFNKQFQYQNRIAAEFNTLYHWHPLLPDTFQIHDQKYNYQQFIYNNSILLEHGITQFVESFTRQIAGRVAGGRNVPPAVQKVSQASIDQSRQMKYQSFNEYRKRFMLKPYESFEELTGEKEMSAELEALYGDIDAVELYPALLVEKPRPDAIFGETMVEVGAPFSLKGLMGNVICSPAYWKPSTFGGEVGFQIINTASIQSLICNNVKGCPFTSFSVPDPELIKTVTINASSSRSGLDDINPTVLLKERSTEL
Protocol: as §1, §2, §3

cellular COX-II = biological target: T3, cellular COX-II (Homo sapiens, UniProt P35354); test: Cellular COX-II Assay (Cell Fibroblast Assay); format: cell-based; settings: IL-1 beta stimulated human fetal dermal fibroblasts; 20 μM arachidonic acid; PGE2 by ELISA
T3 construct: stimulated human fetal dermal fibroblasts (HFDF, derived from primary cell cultures); endogenous in cells; host or cells: human fetal dermal fibroblasts (HFDF), primary culture, stimulated overnight with IL-1 beta
T3 sequence (P35354 18-604): T2 sequence (P35354 18-604)
Protocol: The results for this assay, as well as for the next assay (COX-II Cell Fibroblast Assay) are expressed in terms of COX-I or II activity as an IC50 value (50% inhibitory concentration), as defined as the amount of prostaglandin E2 (PGE2) formed per protein per time in response to the enzyme substrate arachidonic acid.
The compounds of the invention are evaluated with respect to the inhibition of cellular COX-II in vitro according to the following Cellular COX-II Assay (Cell Fibroblast Assay).
Inhibition of cellular COX-II by test compounds is determined using stimulated human fetal dermal fibroblasts (HFDF, derived from primary cell cultures). […] Supernatants are collected and Prostaglandin E2 (PGE2) production is measured by an enzyme-linked immunosorbent assay (ELISA; antibodies produced by Cayman Chemical Company, Ann Arbor, Mich.). […]
The procedure uses information for indomethacin and the rest of the plate in defining the minimum and maximum response. […] For the other compounds, if a response is measured which is less than the response for the unstimulated wells, then this response may be considered to be another estimate of a minimal response. […]

COX II enzyme = settings: E. Meade et al., J. Biol. Chem. 268, 6610 (1993); cited from earlier work
[1] = Futaki et al., Gen. Pharmac. 24, 105 (1993); cited from earlier work
[2] = Futaki et al., Gen. Pharmac. 24, 105 (1993); cited from earlier work; remark: listed apart in the source

T1 sequence (P23219 24-599): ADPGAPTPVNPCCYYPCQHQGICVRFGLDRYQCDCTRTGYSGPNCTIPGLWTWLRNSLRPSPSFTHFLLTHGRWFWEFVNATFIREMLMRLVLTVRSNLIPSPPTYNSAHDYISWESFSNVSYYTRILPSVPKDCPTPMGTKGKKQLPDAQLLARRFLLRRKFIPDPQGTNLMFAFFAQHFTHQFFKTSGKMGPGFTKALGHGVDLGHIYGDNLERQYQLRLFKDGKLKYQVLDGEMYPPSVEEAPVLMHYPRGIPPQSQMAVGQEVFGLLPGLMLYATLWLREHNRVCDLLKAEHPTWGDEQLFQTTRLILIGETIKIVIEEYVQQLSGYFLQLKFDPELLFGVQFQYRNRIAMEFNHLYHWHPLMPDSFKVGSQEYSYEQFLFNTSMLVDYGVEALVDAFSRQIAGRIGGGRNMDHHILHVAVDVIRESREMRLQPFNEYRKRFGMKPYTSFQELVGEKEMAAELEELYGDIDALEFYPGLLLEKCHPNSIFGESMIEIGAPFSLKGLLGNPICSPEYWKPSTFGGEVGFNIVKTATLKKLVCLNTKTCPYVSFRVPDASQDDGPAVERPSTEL

| SMILES | IC50 (human COX-I) [nM] | IC50 (human COX-II) [nM] | also measured |
| --- | --- | --- | --- |
| CC(C)(C)c1cc(C[C@H]2CCC[C@H]2OCC(=O)O)cc(C(C)(C)C)c1 (relative stereo) [Example 7, (cis)-2-[[2-[3,5-bis(1,1-dimethylethyl) -phenylmethyl]cyclopentyl]oxy]-acetic acid] | > 100000 | 1340 | – |
| CC(C)(C)c1cc(C[C@@H]2CCC[C@H]2OCC(=O)O)cc(C(C)(C)C)c1 (relative stereo) [Example 8, (trans)-2-[[2-[3,5-bis(1,1-dimethylethyl) -phenylmethyl]cyclopentyl]oxy]acetic acid] | > 100000 | > 100000 | IC50 (cellular COX-II): 2 nM |
| COc1ccc2cc(CC(=O)O)ccc2c1 [6-methoxy-2-napthylacetic acid] | – | – | selective inhibition of COX II enzyme (COX II enzyme): selectively inhibit the COX II enzyme |
| CS(=O)(=O)Nc1ccc([N+](=O)[O-])cc1OC1CCCCC1 [N-(2-cyclohexyloxy-4-nitrophenyl)methanesulfonamide] | – | – | gastric side effects [1]: lacks gastric side effects; anti-inflammatory activity [2]: anti-inflammatory |
